Here are results for one compound from paper PMC10403574, “Discovery of a pyrrole-pyridinimidazole derivative as novel SIRT6 inhibitor for sensitizing pancreatic cancer to gemcitabine” (Cell Death & Disease, 2023).

Each structure is given as a SMILES string.

One data set concerns PANC-1 cells. Description: MTT proliferation assay, PANC-1. The conditions noted are these: 72 h. It is filed as cell-based. Here is the method: (§1) BXPC-3 and PANC-1 cells were plated in 96-well plates at 5000 cells per well. After 12 h attachment, varying concentrations of 8a were added into the culture medium for 72 h. Then 10 μL MTT (5 mg/ml) solution was added into per well for 4 h at 37 °C. After removing medium, formazan crystals were dissolved in 150 µL DMSO. The cells viability was quantified by measuring the absorbance at 570 nm.

For a further data set, the target named is SIRT1 (Homo sapiens, UniProt Q96EB6). Briefly: Deacetylation activity selectivity, SIRT1. The data set is classed as biochemical. As to the method: (§2) Fluor-De-Lys (FDL) assays were used for the examination of the deacetylation activities of sirtuins as described previously. For the detection of SIRT6 activity, the 50-μL reaction mixture contained 5 μM SIRT6, 2.5 mM NAD^+ (β-Nicotinamide adenine dinucleotide hydrate, Sigma, N1636), 75 μM RHKK-Ac-AMC (GL Biochem, Shanghai), compounds/DMSO, and assay buffer. The reactions were incubated at 37 °C for 2 h, added 50 μL stop solution (40 mM nicotinamide, 6 mg/mL trypsin) at 25 °C for 30 min. Fluorescence intensity was measured at an excitation wavelength of 360 nm and an emission wavelength of 460 nm. IC50 values were calculated in GraphPad Prism version 8.00.
Sequence of SIRT1 (Q96EB6 whole entry, species assumed): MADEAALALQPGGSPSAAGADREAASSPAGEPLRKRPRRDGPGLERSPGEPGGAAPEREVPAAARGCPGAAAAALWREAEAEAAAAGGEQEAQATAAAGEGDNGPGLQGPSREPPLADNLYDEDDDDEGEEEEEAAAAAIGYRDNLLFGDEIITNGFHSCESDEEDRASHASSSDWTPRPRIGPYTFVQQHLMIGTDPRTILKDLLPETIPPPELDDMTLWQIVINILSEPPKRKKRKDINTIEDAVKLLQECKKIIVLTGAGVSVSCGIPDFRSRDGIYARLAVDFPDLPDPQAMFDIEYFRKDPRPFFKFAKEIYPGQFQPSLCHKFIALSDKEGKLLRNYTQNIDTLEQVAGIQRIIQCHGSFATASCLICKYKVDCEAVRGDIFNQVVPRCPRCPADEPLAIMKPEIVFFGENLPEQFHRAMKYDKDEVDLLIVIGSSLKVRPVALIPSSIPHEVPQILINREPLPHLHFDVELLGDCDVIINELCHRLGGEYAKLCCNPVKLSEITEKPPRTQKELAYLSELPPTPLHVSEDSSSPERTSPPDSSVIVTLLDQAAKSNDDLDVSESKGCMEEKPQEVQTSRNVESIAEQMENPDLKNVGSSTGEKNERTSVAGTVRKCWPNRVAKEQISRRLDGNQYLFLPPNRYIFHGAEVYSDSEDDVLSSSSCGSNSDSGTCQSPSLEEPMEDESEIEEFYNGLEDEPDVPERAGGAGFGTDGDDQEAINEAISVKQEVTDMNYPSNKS
(§3) Based on the above results, 8a was further investigated in this study. […] To further evaluate the selectivity of 8a for SIRT6, we examined the effect of 8a on the deacetylation activity of other HDAC family members, including HDAC1-HDAC11, SIRT1-SIRT3 and SIRT5. […] Furthermore, to confirm binding of 8a to SIRT6 in cells, we carried out the cellular thermal shift assay (CETSA). The CETSA approach builds on the thermal shift assay concept where ligand binding to its target protein enhances the target protein stability. We observed that the thermal stability of SIRT6 increased after 8a treatment (Figs. 2c, d).

A further data set has as its target HDAC10 (Homo sapiens, UniProt Q969S8). Briefly: Deacetylation activity selectivity, HDAC10. It is filed as biochemical.
From the text: as §3

The subject of data set [1] is SIRT6 mutants (E140A/R195A, T184A/S191A/P193A/E283A, E22A and D63A). Briefly: FDL assay on other SIRT6 mutants. The data set is classed as biochemical, human. The conditions noted are these: three mutants. Here is the method: as §2
To explore the interaction mechanism, we performed the molecular docking experiment between SIRT6 (PDB ID: 6QCJ) and 8a. […] 8a mainly formed hydrogen bond with the backbone amino group of D187 and the ribose hydroxyl group of the coenzyme NAD^+, and stabilized the whole system by hydrophobic interactions with key amino acids such as I8, V70, W71, F82 and F86 (Fig. 2g). To verify this binding model, the mutant (V70A and F86A) of SIRT6 was constructed by site mutation. […] Moreover, there were also some other potential binding pockets predicted by molecular docking (data not shown). Based on the prediction, we constructed other two SIRT6 mutants (E140A/R195A and T184A/S191A/P193A/E283A). […]

In data set [2] the target is T1, SIRT6 (Homo sapiens, UniProt Q8N6T7). Briefly: Fluor-De-Lys (FDL) SIRT6 deacetylation assay. The arrangement: The human full-length SIRT6 gene was inserted into the prokaryotic expression vector (pET-28a (+)); inferred from the pET-28a(+) vector, Ni-NTA purification and Ni-NTA biosensor loading); made in house; host or cells: Escherichia coli BL21 (DE3). It is filed as biochemical. As to the method:
The human full-length SIRT6 gene was inserted into the prokaryotic expression vector (pET-28a (+)). The verified recombinant plasmid was transformed into Escherichia coli BL21 (DE3) expression strain and cultured overnight at 37 °C on LB plates supplemented with 50 μg/mL kanamycin. Single colonies were inoculated in fluid kanamycin-containing LB mediums. It was shaken at 160 rpm for 16 h at 37 °C and transferred to kanamycin-containing LB medium at a ratio of 1:100. It was shaken at 160 rpm at 37 °C until the OD600 reached 0.6. The Isopropyl-β-d-thiogalactopyranoside was added to make the final concentration of solution 0.5 mmol/L, cultured for 15 °C and 160 rpm for 24 h.
Bacterial liquid was harvested at 12,000 rpm at 4 °C for 20 min, and then re-suspended in Lysis buffer (20 mmol/L Hepes pH 7.5, 20 mmol/L imidazole, 5% Glycerol, 500 mmol/L NaCl). Cell pellets were disrupted by high-pressure crusher (JNBIO, Guangzhou China) and centrifuged (4 °C, 12000 rpm, for 20 min). Supernatant was collected and purified by FPLC with a 1 mL Ni–NTA Sepharose column (GE Healthcare, Stamford, USA). The SIRT6 protein was eluted at containing 50 mM, 100 mM, 150 mM, 200 mM, and 500 mM imidazole in elution buffer. The purified SIRT6 protein was dialyzed in dialysis buffer (50 mM Tris-HCl, 137 mM NaCl, 2.7 mM KCl, 1 mM MgCl2). The purified SIRT6 protein was analyzed by SDS-PAGE.
as §2

The target in data set [3] is T1, SIRT6. Description: Cellular thermal shift assay (CETSA) in Hela cells. The arrangement: endogenous in cells; host or cells: HeLa. The conditions noted are these: 8a 25 μM, 6 h. It is filed as cell-based. Here is the method:
The CETSA [26] approach builds on the thermal shift assay concept where ligand binding to its target protein affects protein stability at high temperatures. Hela cells were plated in 100 mm plates. After 12 h attachment, Hela cells were incubated with 8a (25 μM) for 6 h, and then the cells were digested with trypsin and collected. The collected cells were subsequently aliquoted into […], and incubated each part at different temperatures (40, 41, 42, 43, 44, 45, 46, 47, 48, 49 and 50 °C) for 3 min. The heated cells were then snap frozen in liquid nitrogen three times to lyse. After that, the lysed cells were then centrifuged at 12,000 rpm for 20 min. Then the level of SIRT6 was detected by western blot.

For another data set, the system named is NIT-1 cells. Description: Cell glucose uptake assay, NIT-1. The data set is classed as cell-based. The conditions noted are these: NIT-1, 8a (3.125, 6.25, 12.5 μM) + insulin (100 nM) vs insulin only, 30 min. As to the method:
The NIT-1 and β-TC-6 cells were added to the wells of 12-well plates and incubated overnight. Then the culture medium without FBS was incubated for 6 h, and different concentrations of 8a (3.125, 6.25, 12.5 μM), insulin (100 nM) or their combination were added for 30 min. Glucose uptake was determined using a Glucose Uptake Assay Kit (Jiancheng, Nanjing).

A further data set has as its target SIRT2 (Homo sapiens, UniProt Q8IXJ6). Briefly: Deacetylation activity selectivity, SIRT2. It is filed as biochemical. Here is the method:
as §2, §3

The test system of a further data set is BXPC-3 cells. Description: MTT proliferation assay, BXPC-3. It is filed as cell-based. The conditions noted are these: 72 h. As to the method: as §1

T1 sequence (Q8N6T7 whole entry): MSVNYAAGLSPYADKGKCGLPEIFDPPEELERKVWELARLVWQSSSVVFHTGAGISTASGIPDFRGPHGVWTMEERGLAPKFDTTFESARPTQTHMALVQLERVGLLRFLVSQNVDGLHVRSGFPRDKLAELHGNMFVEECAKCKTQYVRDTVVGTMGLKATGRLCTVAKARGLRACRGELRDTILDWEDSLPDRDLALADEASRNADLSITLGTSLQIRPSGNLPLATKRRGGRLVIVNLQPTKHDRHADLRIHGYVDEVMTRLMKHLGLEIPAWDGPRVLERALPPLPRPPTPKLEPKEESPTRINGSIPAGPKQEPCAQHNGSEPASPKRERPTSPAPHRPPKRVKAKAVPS
Sequence of HDAC10 (Q969S8 whole entry, species assumed): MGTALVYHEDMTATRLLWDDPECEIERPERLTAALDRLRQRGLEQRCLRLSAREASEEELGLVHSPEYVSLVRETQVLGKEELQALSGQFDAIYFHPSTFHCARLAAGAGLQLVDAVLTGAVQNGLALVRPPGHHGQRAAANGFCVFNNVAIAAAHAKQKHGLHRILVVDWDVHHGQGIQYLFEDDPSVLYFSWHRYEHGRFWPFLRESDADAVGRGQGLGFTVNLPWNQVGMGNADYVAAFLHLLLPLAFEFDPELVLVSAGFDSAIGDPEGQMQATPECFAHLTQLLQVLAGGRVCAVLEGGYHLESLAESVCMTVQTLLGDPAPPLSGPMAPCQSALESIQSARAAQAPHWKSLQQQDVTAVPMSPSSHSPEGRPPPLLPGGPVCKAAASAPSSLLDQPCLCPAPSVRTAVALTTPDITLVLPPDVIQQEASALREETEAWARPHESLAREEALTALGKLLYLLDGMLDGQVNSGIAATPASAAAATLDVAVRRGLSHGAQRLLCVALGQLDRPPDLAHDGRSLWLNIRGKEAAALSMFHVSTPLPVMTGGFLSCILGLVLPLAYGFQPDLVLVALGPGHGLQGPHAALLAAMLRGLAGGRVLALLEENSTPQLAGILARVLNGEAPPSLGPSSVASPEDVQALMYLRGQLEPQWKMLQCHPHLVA
Sequence of SIRT2 (Q8IXJ6 whole entry, species assumed): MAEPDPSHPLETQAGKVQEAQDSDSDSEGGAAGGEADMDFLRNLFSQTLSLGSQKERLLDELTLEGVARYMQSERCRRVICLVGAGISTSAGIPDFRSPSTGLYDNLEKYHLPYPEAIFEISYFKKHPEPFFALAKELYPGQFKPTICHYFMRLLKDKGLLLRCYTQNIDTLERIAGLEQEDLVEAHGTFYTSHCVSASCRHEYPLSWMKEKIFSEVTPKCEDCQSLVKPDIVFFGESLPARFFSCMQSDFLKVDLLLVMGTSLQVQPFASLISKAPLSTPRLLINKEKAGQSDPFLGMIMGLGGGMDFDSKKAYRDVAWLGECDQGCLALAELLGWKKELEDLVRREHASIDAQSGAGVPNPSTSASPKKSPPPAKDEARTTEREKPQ

As to `Br.CN(C)C(SCCCCCCn1cnc2c(-c3cc(Br)c(Br)[nH]3)nccc21)=[N+](C)C.[Cl-]` [Compound 8a], the IC50 in the data set with PANC-1 cells is 9.28 µM; at SIRT1 it was 80.5 ± 1.91 µM; at HDAC10, > 200 µM; on SIRT6 [2] it was 7.46 ± 0.79 µM; on SIRT2, 92.2 ± 1.95 µM; in the data set with BXPC-3 cells, 7.56 µM. In addition, in [1], the “effect of mutants on the inhibitory activity of 8a” value was “did not significantly affect”. The “Inhibition rate (%)” value on SIRT6 [2] (fixed concentration of 25 μM, RHKK-Ac-AMC, NI = no inhibition) was found to be 75.6%. Also, the “thermal stability of SIRT6” value at SIRT6 [3] is on record as “increased”. For the same compound, the glucose uptake result in the data set on NIT-1 cells is “no significant effect”.
